Values after ≈ are worked out from the molar mass of the structure shown. Active and inactive are the calls of the source. The rule behind the calls is not given here.
What was measured:
Candida albicans [1] = test: Antifungal activity against Candida albicans MTCC 854 at 1.4 to 300 ug/ml after 24 hr by microtiter broth dilution method; assay type: functional, organism-based
Micrococcus luteus = test: Antibacterial activity against Micrococcus luteus MTCC 2470 at 1.4 to 300 ug/ml after 24 hr by microtiter broth dilution method; assay type: functional, organism-based
Candida albicans [2] = test: Antifungal activity against Candida albicans MTCC 3958 at 1.4 to 300 ug/ml after 24 hr by microtiter broth dilution method; assay type: functional, organism-based
Candida albicans [3] = test: Antifungal activity against Candida albicans MTCC 1637 at 1.4 to 300 ug/ml after 24 hr by microtiter broth dilution method; assay type: functional, organism-based
Candida albicans [4] = test: Antifungal activity against Candida albicans MTCC 227 at 1.4 to 300 ug/ml after 24 hr by microtiter broth dilution method; assay type: functional, organism-based
Staphylococcus aureus [5] = test: Antibacterial activity against Staphylococcus aureus MTCC 96 after 24 hr by microtiter broth dilution method; assay type: functional; conditions: MTCC 96, 24 h
Escherichia coli = test: Antibacterial activity against Escherichia coli MTCC 739 at 1.4 to 300 ug/ml after 24 hr by microtiter broth dilution method; assay type: functional, organism-based
Pseudomonas aeruginosa = test: Antibacterial activity against Pseudomonas aeruginosa MTCC 2453 after 24 hr by microtiter broth dilution method; assay type: functional
HeLa = test: Cytotoxicity against Homo sapiens (human) HeLa cells by tetrazolium-reduction assay; assay type: functional, cell-based
A549 = test: Cytotoxicity against Homo sapiens (human) A549 cells by tetrazolium-reduction assay; assay type: functional, cell-based
N2a = test: Cytotoxicity against Mus musculus (mouse) Neuro2a cells by tetrazolium-reduction assay; assay type: functional, cell-based
HepG2 = test: Cytotoxicity against Homo sapiens (human) HepG2 cells by tetrazolium-reduction assay; assay type: functional, cell-based
Bacillus subtilis = test: Antibacterial activity against Bacillus subtilis MTCC 121 after 24 hr by microtiter broth dilution method; assay type: functional
Staphylococcus aureus [6] = test: Antibacterial activity against Staphylococcus aureus MLS16 MTCC 2940 after 24 hr by microtiter broth dilution method; assay type: functional
Candida parapsilosis [7] = test: Antifungal activity against Candida parapsilosis MTCC 1744 at 1.4 to 300 ug/ml after 24 hr by microtiter broth dilution method; assay type: functional, organism-based
MCF7 = test: Cytotoxicity against Homo sapiens (human) MCF7 cells by tetrazolium-reduction assay; assay type: functional, cell-based
Raoultella planticola = test: Antibacterial activity against Raoultella planticola MTCC 530 at 1.4 to 300 ug/ml after 24 hr by microtiter broth dilution method; assay type: functional, organism-based
Candida albicans [8] = test: Antifungal activity against Candida albicans MTCC 3018 at 1.4 to 300 ug/ml after 24 hr by microtiter broth dilution method; assay type: functional, organism-based
Candida albicans [9] = test: Antifungal activity against Candida albicans MTCC 7315 at 1.4 to 300 ug/ml after 24 hr by microtiter broth dilution method; assay type: functional, organism-based
Candida albicans [10] = test: Antifungal activity against Candida albicans MTCC 183 at 1.4 to 300 ug/ml after 24 hr by microtiter broth dilution method; assay type: functional, organism-based
[Candida] aaseri [11] = Antifungal activity against Candida aaseri MTCC 1962 at 1.4 to 300 ug/ml after 24 hr by microtiter broth dilution method; assay type: functional, organism-based
Candida albicans [12] = test: Antifungal activity against Candida albicans MTCC 3017 at 1.4 to 300 ug/ml after 24 hr by microtiter broth dilution method; assay type: functional, organism-based
MDA-MB-231 = test: Cytotoxicity against Homo sapiens (human) MDA-MB-231 cells by tetrazolium-reduction assay; assay type: functional, cell-based
Nakaseomyces glabratus [13] = test: Antifungal activity against Candida glabrata MTCC 3019 at 1.4 to 300 ug/ml after 24 hr by microtiter broth dilution method; assay type: functional, organism-based
Candida albicans [14] = test: Antifungal activity against Candida albicans MTCC 1637 after 24 hr by microtiter broth dilution method; assay type: functional
Candida albicans [15] = test: Antifungal activity against Candida albicans MTCC 227 after 24 hr by microtiter broth dilution method; assay type: functional; conditions: MTCC 227, 24 h
Pichia sporocuriosa = test: Antifungal activity against Issatchenkia hanoiensis MTCC 4755 after 24 hr by microtiter broth dilution method; assay type: functional; conditions: MTCC 4755, 24 h
Candida albicans [16] = test: Antifungal activity against Candida albicans MTCC 3017 after 24 hr by microtiter broth dilution method; assay type: functional
Nakaseomyces glabratus [17] = test: Antifungal activity against Candida glabrata MTCC 3019 after 24 hr by microtiter broth dilution method; assay type: functional
Candida albicans [18] = test: Antifungal activity against Candida albicans MTCC 3958 after 24 hr by microtiter broth dilution method; assay type: functional; conditions: MTCC 3958, 24 h
Candida albicans [19] = test: Antifungal activity against Candida albicans MTCC 7315 after 24 hr by microtiter broth dilution method; assay type: functional; conditions: MTCC 7315, 24 h
Candida albicans [20] = test: Antifungal activity against Candida albicans MTCC 854 after 24 hr by microtiter broth dilution method; assay type: functional
[Candida] aaseri [21] = Antifungal activity against Candida aaseri MTCC 1962 after 24 hr by microtiter broth dilution method; assay type: functional; conditions: Yamadazyma aaseri, MTCC 1962, 24 h
Candida albicans [22] = test: Antifungal activity against Candida albicans MTCC 3018 after 24 hr by microtiter broth dilution method; assay type: functional; conditions: MTCC 3018, 24 h
Candida parapsilosis [23] = test: Antifungal activity against Candida parapsilosis MTCC 1744 after 24 hr by microtiter broth dilution method; assay type: functional
Candida albicans [24] = test: Antifungal activity against Candida albicans MTCC 183 after 24 hr by microtiter broth dilution method; assay type: functional; conditions: MTCC 183, 24 h
Pichia kudriavzevii = test: Antifungal activity against Pichia kudriavzevii MTCC 3020 after 24 hr by microtiter broth dilution method; assay type: functional; conditions: MTCC 3020, 24 h
[25] = Homo sapiens, MCF7, read-out: IC50

Structure (SMILES) | MIC (Staphylococcus aureus [5]) [µg/mL] | MIC (Pseudomonas aeruginosa; MTCC 2453, 24 h) [µg/mL] | MIC (Bacillus subtilis) | MIC (Staphylococcus aureus [6]; MLS16 MTCC 2940, 24 h) [µg/mL] | Activity (Candida albicans [1]) | Activity (Micrococcus luteus) | Activity (Candida albicans [2]) | Activity (Candida albicans [3]) | Activity (Candida albicans [4]) | Activity (Escherichia coli) | Activity (HeLa) | Activity (A549) | Activity (N2a) | Activity (HepG2) | Activity (Candida parapsilosis [7]) | Activity (Raoultella planticola) | Activity (Candida albicans [8]) | Activity (Candida albicans [9]) | Activity (Candida albicans [10]) | IC50 (MDA-MB-231) [µM] | other results
CCCCCCCCCCCCCCCCCC(=O)Oc1ccc(/C=N/Cc2cccnc2)cc1 | 300 (≈ 627 µM) | 300 (≈ 627 µM) | inactive | 300 (≈ 627 µM) | inactive | inactive | inactive | inactive | inactive | inactive | inactive | inactive | inactive | inactive | inactive | inactive | inactive | inactive | inactive | 11.5 | IC50 (MCF7; mcf7): Not Active; Activity ([Candida] aaseri [11]): inactive; Activity (Candida albicans [12]): inactive; Activity (Nakaseomyces glabratus [13]): inactive
Oc1ccc(/C=N/Cc2cccnc2)cc1 | 75 (≈ 353 µM) |  | inactive |  | inactive |  | inactive | inactive | inactive |  | inactive | inactive | inactive | inactive | inactive |  | inactive | inactive | inactive | 16.9 | MIC (Pseudomonas aeruginosa): inactive; MIC (Staphylococcus aureus [6]): inactive; IC50 (MCF7; [25]): 12 µM; Activity ([Candida] aaseri [11]): inactive; Activity (Candida albicans [12]): inactive; Activity (Nakaseomyces glabratus [13]): inactive
CCCCCCC(=O)Oc1ccc(/C=N/Cc2cccnc2)cc1 | 37.5 (≈ 116 µM) | 37.5 (≈ 116 µM) |  | 150 (≈ 462 µM) |  | inactive |  |  |  | inactive | inactive | inactive | inactive | inactive |  | inactive |  |  |  | 15 | MIC (Candida albicans [14]; MTCC 1637, 24 h): 150 µg/mL (≈ 462 µM); MIC (Candida albicans [15]): 75 µg/mL (≈ 231 µM); MIC (Pichia sporocuriosa): 75 µg/mL (≈ 231 µM); MIC (Candida albicans [16]): inactive; MIC (Nakaseomyces glabratus [17]): inactive; MIC (Candida albicans [18]): 150 µg/mL (≈ 462 µM); MIC (Candida albicans [19]): 150 µg/mL (≈ 462 µM); MIC (Candida albicans [20]; MTCC 854, 24 h): 300 µg/mL (≈ 925 µM); MIC (Bacillus subtilis; MTCC 121, 24 h): 300 µg/mL (≈ 925 µM); IC50 (MCF7; mcf7): Not Active; MIC ([Candida] aaseri [21]): 75 µg/mL (≈ 231 µM); MIC (Candida albicans [22]): 75 µg/mL (≈ 231 µM); MIC (Candida parapsilosis [23]; Lodderomyces parapsilosis, MTCC 1744, 24 h): 300 µg/mL (≈ 925 µM); MIC (Candida albicans [24]): 300 µg/mL (≈ 925 µM); MIC (Pichia kudriavzevii): 75 µg/mL (≈ 231 µM)

Further lines, with some results ahead:

MIC (Staphylococcus aureus [5]) [µg/mL] | MIC (Pseudomonas aeruginosa; MTCC 2453, 24 h) [µg/mL] | MIC (Bacillus subtilis) | MIC (Staphylococcus aureus [6]; MLS16 MTCC 2940, 24 h) [µg/mL] | Structure (SMILES) | Activity (Candida albicans [1]) | Activity (Micrococcus luteus) | Activity (Candida albicans [2]) | Activity (Candida albicans [3]) | Activity (Candida albicans [4]) | Activity (Escherichia coli) | Activity (HeLa) | Activity (A549) | Activity (N2a) | Activity (HepG2) | Activity (Candida parapsilosis [7]) | Activity (Raoultella planticola) | Activity (Candida albicans [8]) | Activity (Candida albicans [9]) | Activity (Candida albicans [10]) | IC50 (MDA-MB-231) [µM] | other results
37.5 (≈ 111 µM) | 300 (≈ 886 µM) |  | 300 (≈ 886 µM) | CCCCCCCC(=O)Oc1ccc(/C=N/Cc2cccnc2)cc1 |  | inactive |  |  |  | inactive | inactive | inactive | inactive | inactive |  | inactive |  |  |  | 15.8 | MIC (Candida albicans [14]): inactive; MIC (Candida albicans [15]): 150 µg/mL (≈ 443 µM); MIC (Pichia sporocuriosa): 300 µg/mL (≈ 886 µM); MIC (Candida albicans [16]): inactive; MIC (Nakaseomyces glabratus [17]; MTCC 3019, 24 h): 150 µg/mL (≈ 443 µM); MIC (Candida albicans [18]): 150 µg/mL (≈ 443 µM); MIC (Candida albicans [19]): 150 µg/mL (≈ 443 µM); MIC (Candida albicans [20]): inactive; MIC (Bacillus subtilis; MTCC 121, 24 h): 300 µg/mL (≈ 886 µM); IC50 (MCF7; [25]): 12 µM; MIC ([Candida] aaseri [21]): 300 µg/mL (≈ 886 µM); MIC (Candida albicans [22]): 300 µg/mL (≈ 886 µM); MIC (Candida parapsilosis [23]): inactive; MIC (Candida albicans [24]): 150 µg/mL (≈ 443 µM); MIC (Pichia kudriavzevii): 150 µg/mL (≈ 443 µM)
150 (≈ 380 µM) |  | inactive | 150 (≈ 380 µM) | CCCCCCCCCCCC(=O)Oc1ccc(/C=N/Cc2cccnc2)cc1 | inactive | inactive | inactive | inactive | inactive | inactive | inactive | inactive | inactive | inactive | inactive | inactive | inactive | inactive | inactive | 18.9 | MIC (Pseudomonas aeruginosa): inactive; IC50 (MCF7; [25]): 17.6 µM; Activity ([Candida] aaseri [11]): inactive; Activity (Candida albicans [12]): inactive; Activity (Nakaseomyces glabratus [13]): inactive
